Molecules are shown by their SMILES.

From patent US10358446B2, “Bruton's tyrosine kinase inhibitors” (Zibo Biopolar Changsheng Pharmaceutical Co. Ltd., priority 2015, dated 2019) come the findings set out here.

BTK, sequence (Q06187 whole entry, species assumed): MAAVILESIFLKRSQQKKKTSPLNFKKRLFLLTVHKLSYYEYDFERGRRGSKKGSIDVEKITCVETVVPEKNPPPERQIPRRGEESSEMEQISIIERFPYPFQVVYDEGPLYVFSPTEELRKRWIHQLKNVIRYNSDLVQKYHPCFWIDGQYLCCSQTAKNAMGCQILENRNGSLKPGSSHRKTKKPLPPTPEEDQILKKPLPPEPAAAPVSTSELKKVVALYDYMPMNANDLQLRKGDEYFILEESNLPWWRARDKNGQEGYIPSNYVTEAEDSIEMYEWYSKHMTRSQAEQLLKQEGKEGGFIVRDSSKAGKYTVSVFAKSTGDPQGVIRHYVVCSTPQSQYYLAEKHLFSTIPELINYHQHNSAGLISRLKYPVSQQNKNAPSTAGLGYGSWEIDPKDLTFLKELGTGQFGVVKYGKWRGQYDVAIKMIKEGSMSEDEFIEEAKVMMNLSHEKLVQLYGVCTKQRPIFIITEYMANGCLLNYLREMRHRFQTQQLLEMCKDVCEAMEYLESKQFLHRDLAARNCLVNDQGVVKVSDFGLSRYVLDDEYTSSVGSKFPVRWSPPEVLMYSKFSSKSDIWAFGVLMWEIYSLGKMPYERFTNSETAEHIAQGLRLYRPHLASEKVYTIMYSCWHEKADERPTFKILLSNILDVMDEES

In this assay the target is BTK (Homo sapiens (Human), UniProt Q06187). Briefly: Btk kinase assay (HTRF). It counts as biochemical. Conditions: [ATP]=80 μM, BTK=3.4 nM; read-out: BTK Inhibition. The gist of the method:
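BTK (3.4 nM) incubated 1 h with inhibitor, 80 μM ATP and 1 μM peptide substrate in 50 mM HEPES pH 7.0 with BSA and orthovanadate. Reaction stopped with EDTA plus Eu-antibody/XL665; HTRF 665/615 ratio read after 1 h, IC50 calculated relative to no-inhibitor and no-enzyme controls.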
As to `CN(C(=O)/C=C/CN(C)C1CC1)c1cccc(-n2c(=O)n(-c3ccc(Oc4ccccc4)cc3)c3c(N)ncnc32)c1` [Example 174, (E)-N-(3-(6-amino-8-oxo-7-(4-phenoxyphenyl)-7H-purin-9(8H)-yl)phenyl)-4-(cyclopropyl(methyl)amino)-N-methylbut-2-enamide], the IC50 was 10 to 100 nM. Take `C=CC(=O)N1CC[C@@H](n2c(=O)n(-c3ccc(OCc4ccc(Cl)c(Cl)c4)c(Cl)c3)c3cnccc32)C1` [Example 215, (R)-1-(1-acryloylpyrrolidin-3-yl)-3-(3-chloro-4-((3,4-dichlorobenzyl)oxy)phenyl)-1H-imidazo[4,5-c]pyridin-2(3H)-one]: the IC50 lay in the range of 1000 to 10000 nM. As for `C=CC(=O)Nc1cccc(-n2c(=O)n(-c3ccc(Oc4ccccc4)c(Cl)c3)c3cnccc32)c1` [Example 73, N-(3-(3-(3-chloro-4-phenoxyphenyl)-2-oxo-2,3-dihydro-1H-imidazo[4,5-c]pyridin-1-yl)phenyl)acrylamide], the IC50 was 10 to 100 nM. Next, `CC(=O)N1CC[C@@H](n2c(=O)n(-c3ccc(Oc4ccccc4)cc3)c3cnccc32)C1` [Example 32, (R)-1-(1-acetylpyrrolidin-3-yl)-3-(4-phenoxyphenyl)-1H-imidazo[4,5-c]pyridin-2(3H)-one]: no less than 10000 nM; `C=CC(=O)N1CC[C@@H](n2c(=O)n(-c3ccc(Oc4ccc(Cl)cc4)cc3)c3cnccc32)C1` [Example 82, (R)-1-(1-acryloylpyrrolidin-3-yl)-3-(4-(4-chlorophenoxy)phenyl)-1H-imidazo[4,5-c]pyridin-2(3H)-one]: 100 to 1000 nM; `C=CC(=O)N1CC[C@@H](n2c(=O)n(-c3ccc(Oc4cccc(F)c4OC)cc3)c3cnccc32)C1` [Example 137, (R)-1-(1-acryloylpyrrolidin-3-yl)-3-(4-(3-fluoro-2-methoxyphenoxy)phenyl)-1H-imidazo[4,5-c]pyridin-2(3H)-one]: 100 to 1000 nM. With `C=CC(=O)N1CC[C@@H](n2c(=O)n(-c3ccc(Oc4cccc(Cl)c4OC)cc3)c3cnccc32)C1` [Example 63, (R)-1-(1-acryloylpyrrolidin-3-yl)-3-(4-(3-chloro-2-methoxyphenoxy)phenyl)-1H-imidazo[4,5-c]pyridine-2(3H)-one] the figure was 10 to 100 nM. For the compound `C=CC(=O)N1CCC[C@@H](n2c(=O)n(-c3ccc(Oc4cccc(Cl)c4OC)cc3)c3cnccc32)C1` [Example 64, (R)-1-(1-acryloylpiperidin-3-yl)-3-(4-(3-chloro-2-methoxyphenoxy)phenyl)-1H-imidazo[4,5-c]pyridin-2(3H)-one], the IC50 lay within 100 to 1000 nM. With `C=CC(=O)Nc1cccc(-n2c(=O)n(-c3ccc(Oc4cccc(Cl)c4)c(F)c3)c3cnccc32)c1` [Example 50] the figure was 100 to 1000 nM; with `C=CC(=O)Nc1cccc(-n2c(=O)n(-c3cccc(Oc4ccccc4OC)c3)c3cnccc32)c1` [Example 89, N-(3-(3-(3-(2-methoxyphenoxy)phenyl)-2-oxo-2,3-dihydro-1H-imidazo[4,5-c]pyridin-1-yl)phenyl)acrylamide], 10 to 100 nM. Next, `C=CC(=O)N1CCC[C@@H](n2c(=O)n(-c3ccc(Oc4cccc(OC)c4Cl)cc3)c3cnccc32)C1` [Example 185, (R)-1-(1-acryloylpiperidin-3-yl)-3-(4-(2-chloro-3-methoxyphenoxy)phenyl)-1H-imidazo[4,5-c]pyridin-2(3H)-one]: no more than 10 nM.

Take `C=CC(=O)N1CC[C@@H](n2c(=O)n(-c3ccc(Oc4cccc(Cl)c4C)cc3)c3cnccc32)C1` [Example 139, (R)-1-(1-acryloylpyrrolidin-3-yl)-3-(4-(3-chloro-2-methylphenoxy)phenyl)-1H-imidazo[4,5-c]pyridin-2(3H)-one]: the IC50 lay in the range of 10 to 100 nM.

On to `C=CC(=O)N1CC[C@@H](n2c(=O)n(-c3ccc(Oc4cccc(C5CC5)c4)cc3)c3cnccc32)C1` [Example 10, (R)-1-(1-acryloylpyrrolidin-3-yl)-3-(4-(3-cyclopropylphenoxy)phenyl)-1H-imidazo[4,5-c]pyridin-2(3H)-one], for which the IC50 lay within 100 to 1000 nM. Next, `C=CC(=O)N1CC[C@@H](n2c(=O)n(-c3ccc(Oc4ccccc4)cc3)c3cnccc32)C1` [Example 33, (R)-1-(1-acryloylpyrrolidin-3-yl)-3-(4-phenoxyphenyl)-1H-imidazo[4,5-c]pyridin-2(3H)-one]: 10 to 100 nM; `C=CC(=O)N1CC[C@@H](n2c(=O)n(-c3ccc(Oc4ccccc4)cc3)c3cccnc32)C1` [Example 120, (R)-3-(1-acryloylpyrrolidin-3-yl)-1-(4-phenoxyphenyl)-1H-imidazo[4,5-b]pyridin-2(3H)-one]: 1000 to 10000 nM. With `C=CC(=O)Nc1cccc(-n2c(=O)n(-c3ccc(Oc4cccc(F)c4F)cc3)c3cnccc32)c1` [Example 125, N-(3-(3-(4-(2,3-difluorophenoxy)phenyl)-2-oxo-2,3-dihydro-1H-imidazo[4,5-c]pyridin-1-yl)phenyl)acrylamide] the figure was 10 to 100 nM; with `C=CC(=O)Nc1cccc(-n2c(=O)n(-c3ccc(Oc4cccc(C)c4)c(F)c3)c3cnccc32)c1` [Example 49, N-(3-(3-(3-fluoro-4-(m-tolyloxy)phenyl)-2-oxo-2,3-dihydro-1H-imidazo[4,5-c]pyridin-1-yl)phenyl)acrylamide], 10 to 100 nM; with `C=CC(=O)Nc1cccc(-n2c(=O)n(-c3ccc(OCc4ccccc4F)c(Cl)c3)c3cnccc32)c1` [Example 235, N-(3-(3-(3-chloro-4-((2-fluorobenzyl)oxy)phenyl)-2-oxo-2,3-dihydro-1H-imidazo[4,5-c]pyridin-1-yl)phenyl)acrylamide], 10 to 100 nM. For the compound `C=CC(=O)N1CC[C@@H](n2c(=O)n(-c3ccc(Oc4cccc(C)c4OC)cc3)c3cnccc32)C1` [Example 67, (R)-1-(1-acryloylpyrrolidin-3-yl)-3-(4-(2-methoxy-3-methylphenoxy)phenyl)-1H-imidazo[4,5-c]pyridin-2(3H)-one], the IC50 lay within 10 to 100 nM. Turning to `C=CC(=O)Nc1cccc(-n2c(=O)n(-c3ccc(Oc4cccc(OC(C)C)c4)c(F)c3)c3cnccc32)c1` [Example 48, N-(3-(3-(3-fluoro-4-(3-isopropoxyphenoxy)phenyl)-2-oxo-2,3-dihydro-1H-imidazo[4,5-c]pyridin-1-yl)phenyl)acrylamide], the IC50 fell in the range of 10 to 100 nM.

Regarding `C=CC(=O)N1CC[C@@H](n2c(=O)n(-c3ccc(Oc4ccc(OC)c(OC)c4)cc3)c3cnccc32)C1` [Example 40, (R)-1-(1-acryloylpyrrolidin-3-yl)-3-(4-(3,4-dimethoxyphenoxy)phenyl)-1H-imidazo[4,5-c]pyridin-2(3H)-one], the IC50 is 10 to 100 nM.

On to `C=CC(=O)Nc1cccc(-n2c(=O)n(-c3ccc(Oc4cccc(OC(C)C)c4)cc3)c3cnccc32)c1` [Example 85, N-(3-(3-(4-(3-isopropoxyphenoxy)phenyl)-2-oxo-2,3-dihydro-1H-imidazo[4,5-c]pyridin-1-yl)phenyl)acrylamide], for which the IC50 fell in the range of 10 to 100 nM. For the compound `C=CC(=O)N1CCC[C@@H](n2c(=O)n(-c3ccc(Oc4cccc(OC)c4F)cc3)c3cncc(OCC)c32)C1` [Example 167, (R)-1-(1-acryloylpiperidin-3-yl)-7-ethoxy-3-(4-(2-fluoro-3-methoxyphenoxy)phenyl)-1H-imidazo [4,5-c]pyridin-2(3H)-one], the IC50 is no more than 10 nM. For the compound `C=CC(=O)Nc1cccc(-n2c(=O)n(-c3ccc(Sc4ccccc4)cc3)c3cnccc32)c1` [Example 157, N-(3-(2-oxo-3-(4-(phenylthio)phenyl)-2,3-dihydro-1H-imidazo[4,5-c]pyridin-1-yl)phenyl)acrylamide], the IC50 is no more than 10 nM. Next, `C=CC(=O)N1CC[C@@H](n2c(=O)n(-c3ccc(Oc4cccc(OC)c4F)cc3)c3cncc(C)c32)C1` [Example 172, (R)-1-(1-acryloylpyrrolidin-3-yl)-3-(4-(2-fluoro-3-methoxyphenoxy)phenyl)-7-methyl-1H-imidazo[4,5-c]pyridin-2(3H)-one]: no more than 10 nM; `C=CC(=O)Nc1cccc(-n2c(=O)n(-c3ccc(C(=O)Nc4cccc(C(F)(F)F)c4)cc3)c3cnccc32)c1` [Example 251, 4-(1-(3-acrylamidophenyl)-2-oxo-1H-imidazo[4,5-c]pyridin-3(2H)-yl)-N-(3-(trifluoromethyl)phenyl)benzamide]: 1000 to 10000 nM; `C=CC(=O)N1CC[C@@H](n2c(=O)n(-c3ccc(OCc4ccc(C(F)(F)F)cc4)c(Cl)c3)c3cnccc32)C1` [Example 205, (R)-1-(1-acryloylpyrrolidin-3-yl)-3-(3-chloro-4-((4-(trifluoromethyl)benzyl)oxy)phenyl)-1H-imidazo[4,5-c]pyridin-2(3H)-one]: 100 to 1000 nM. With `C=CC(=O)Nc1cccc(-n2c(=O)n(-c3cccc(Oc4cccc(Cl)c4)c3)c3cnccc32)c1` [Example 74, N-(3-(3-(3-(3-chlorophenoxy)phenyl)-2-oxo-2,3-dihydro-1H-imidazo[4,5-c]pyridin-1-yl)phenyl)acrylamide] the figure was 10 to 100 nM; with `C=CC(=O)Nc1cccc(-n2c(=O)n(-c3ccc(Oc4cccc(OC)c4)c(Cl)c3)c3cnccc32)c1` [Example 86, N-(3-(3-(3-chloro-4-(3-methoxyphenoxy)phenyl)-2-oxo-2,3-dihydro-1H-imidazo[4,5-c]pyridin-1-yl)phenyl)acrylamide], 100 to 1000 nM. Next, `C=CC(=O)Nc1cccc(-n2c(=O)n(-c3ccc(Oc4cccc(Cl)c4F)cc3)c3cnccc32)c1` [Example 54, N-(3-(3-(4-(3-chloro-2-fluorophenoxy)phenyl)-2-oxo-2,3-dihydro-1H-imidazo[4,5-c]pyridin-1-yl)phenyl)acrylamide]: 10 to 100 nM; `C=CC(=O)N1CC[C@@H](n2c(=O)n(-c3ccc(Oc4cc(Cl)cc(OC)c4)cc3)c3cnccc32)C1` [Example 9, (R)-1-(1-acryloylpyrrolidin-3-yl)-3-(4-(3-chloro-5-methoxyphenoxy)phenyl)-1H-imidazo[4,5-c]pyridin-2(3H)-one]: 10 to 100 nM.
